In data set [1] the target is T1, NicA2 (Pseudomonas putida, UniProt F8G0P2). The data set is described as follows: Chronoamperometric NicA2 electrochemical nicotine biosensor. The settings on record: for chronoamperometric response to compound alone: added in the middle of a chronoamperometric experiment. It is filed as biochemical, Pseudomonas putida S16. On the set-up: poly-histidine; made in house; host or cells: E. coli BL21 (DE3). The protocol:
Sensor Preparation: Electrochemical experiments were performed with VersaSTAT MC™ (Ametek Inc.™, Pennsylvania, Pa.). Sensors were prepared with Screen-Printed Prussian Blue/Carbon Electrode (Metrohm USA™, Riverview, Fla.). […] The sensors were allowed to dry overnight at 4° C. with no light prior to use.
Chronoamperometric responses were recorded over time, with a potential −0.2 V (versus Ag/AgCl). […] Similar experiments were performed to evaluate the selectivity of the sensor to cotinine.
The electrochemical biosensor was composed of a Screen-Printed Prussian Blue/Carbon Electrode with a Ag/AgCl reference electrode (RE). […] Chronoamperometric responses were recorded over time with a potential −0.2 V versus the RE.
The selectivity of the biosensor was evaluated by measuring the chronoamperometric response in the presence of common interferents at relevant physiological concentrations in sweat (see e.g., FIG. 22C).

For data set [2], the system named is Rosetta2 (DE3) cells expressing MAO. In words: Cell viability of Rosetta2 (DE3) cells expressing MAO. Type of data set: cell-based, E. coli.
The target in data set [3] is T1, NicA2. In words: AUR fluorescence of cells expressing APEX2 and NicA2. Type of data set: cell-based, Pseudomonas putida S16.
A further data set concerns C. ammoniagenes MAO. The data set is described as follows: AUR fluorescence assay in Rosetta2 (DE3) cells expressing MAO. It is filed as cell-based.
Another data set has as its system C41 cells expressing MAO. In words: Cell viability of C41 cells expressing MAO. Type of data set: cell-based, E. coli. Conditions: C41 AUR fluorescing cells expressing MAO.
The next data set deals with candidate MRE. The data set is described as follows: Optimized MRE assay, clone responsive to hydrocortisone. Type of data set: cell-based. Conditions: Rosetta2 (DE3) cells, clone from mixture of seven gDNA libraries. The text has this:
Further analysis of the fluorescence cells identified two clones that expressed a candidate MRE responsive to lidocaine (FIG. 40A) and two clones that were responsive to cortisol (FIG. 40B). Additionally, the inventors also discovered one clone expressing a candidate MRE responsive to hydrocortisone (FIGS. 41A-41F).

In data set [4] the target is T2, nicA2 (Pseudomonas putida, UniProt F8G0P2).
T2 construct: expressed in transfected cells; host or cells: E. coli
T2 sequence (F8G0P2 39-482): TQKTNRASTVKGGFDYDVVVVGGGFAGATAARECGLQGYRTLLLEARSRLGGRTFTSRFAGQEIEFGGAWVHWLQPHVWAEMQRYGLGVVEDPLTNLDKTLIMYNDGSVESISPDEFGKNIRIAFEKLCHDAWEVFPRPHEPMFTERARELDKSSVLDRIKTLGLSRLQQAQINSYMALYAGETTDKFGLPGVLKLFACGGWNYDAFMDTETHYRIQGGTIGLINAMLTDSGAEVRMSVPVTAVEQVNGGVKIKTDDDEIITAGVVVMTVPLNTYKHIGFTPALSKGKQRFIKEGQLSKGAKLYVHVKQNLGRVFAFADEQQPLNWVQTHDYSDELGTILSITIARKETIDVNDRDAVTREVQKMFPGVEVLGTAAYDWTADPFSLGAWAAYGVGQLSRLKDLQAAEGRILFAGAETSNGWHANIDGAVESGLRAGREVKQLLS
In words: FACS percentage of fluorescent cells on nicA2 induction. Type of data set: cell-based. Conditions: induced with 50 μM IPTG; APEX2, AUR and nicotine present.

Structures are written as SMILES. Read-outs that look alike come from different tables or passages of the source.

Turning to `CN1CCCC1c1cccnc1` (stereo not drawn) [nicotine], at NicA2 [1] (200 μM nicotine), the “time of return to baseline” value came out at 6000 s and the “time to maximal current” value was found to be 4000 s. Further, the Maximal current at NicA2 [1] (200 μM nicotine, 2 nmol NicA2, −0.2 V versus Ag/AgCl, PBS) is ~250 nA. In data set [2], the cell viability entry was “substantially decreased”. Moreover, on NicA2 [3], the “fluorescence of cells expressing APEX2 and NicA2” value is on record as “robust fluorescence”.

As to `c1cncc(C2=NCCC2)c1` [myosmine], the “response to nicotine addition after NicA2 was inhibited by myosmine” value at NicA2 [1] was “Minimal responses”; on NicA2 [1] (listed as Myosmine), “Minimal response”. In addition, the “chronoamperometric response to compound alone” value at NicA2 [1] is given as “Minimal responses”; on NicA2 [1] (listed as Myosmine) it was “Minimal response”. For the same compound, the “fluorescence of cells expressing APEX2 and NicA2” value on NicA2 [3] is “not”.

Consider `NCc1ccccc1` [benzylamine], for which, in data set [2], the cell viability entry is given as “do not decrease cell viability”. Further, the AUR fluorescence entry with C. ammoniagenes MAO is recorded as “produce fluorescent signal”.

With `NCC(O)c1ccc(O)cc1` (stereo not drawn) [octopamine], the “cell viability as compared to Rosetta2 (DE3) cells” value with C41 cells expressing MAO was “decreased viability”. Further, in data set [2], the cell viability entry is reported as “do not decrease cell viability”. The AUR fluorescence entry in the data set on C. ammoniagenes MAO is listed as “produce fluorescent signal”.

In the case of `C[C@]12CCC(=O)C=C1CC[C@@H]1[C@@H]2[C@@H](O)C[C@@]2(C)[C@H]1CC[C@]2(O)C(=O)CO` [hydrocortisone], the “fluorescence over time as compared to no hydrocortisone” value with candidate MRE is listed as “increased fluorescence”.

On to `CC(C)S[C@@H]1O[C@H](CO)[C@H](O)[C@H](O)[C@H]1O` [IPTG, isopropyl b-D-1-thiogalactopyranoside], for which the “percentage of cells fluorescent” value on nicA2 [4] worked out at 79.3%.

With `NCCc1ccc(O)cc1` [tyramine], in the data set on C41 cells expressing MAO, the “cell viability as compared to Rosetta2 (DE3) cells” value is “decreased viability”. For the same compound, the cell viability result in data set [2] is on record as “do not decrease cell viability”. Moreover, in the data set with C. ammoniagenes MAO, the AUR fluorescence entry is on record as “produce fluorescent signal”.

For `NCCc1c[nH]c2ccccc12` [tryptamine], in the data set with C41 cells expressing MAO, the “cell viability as compared to Rosetta2 (DE3) cells” value was “decreased viability”. In addition, the cell viability result in data set [2] was “do not decrease cell viability”. Besides, the AUR fluorescence result in the data set with C. ammoniagenes MAO was “produce fluorescent signal”.

With `CN1C(=O)CC[C@H]1c1cccnc1` [Cotinine], the “effect upon the response to nicotine” value on NicA2 [1] (200 μM nicotine solution added to solution of the compound) is “minimal effect”.

These data come from US11536685B2, “High throughput assay for identifying microbial redox enzymes” (TRUSTEES OF BOSTON UNIVERSITY, priority 2020, dated 2022).
